From patent publication US20220365087A1, “METHOD FOR ACQUIRING DATA FOR DISTINGUISHING PRESENCE OF CANCER CELLS AND/OR DISTINGUISHING ANTICANCER DRUG RESISTANCE, METHOD FOR ACQUIRING PREDICTION DATA, USE OF DISTINCTION MARKER IN SAME, AND DISTINGUISHING KIT” (KEIO UNIVERSITY, priority 2019, published 2022)

Assays:
[1] = system: plasmid (pcDNA3.1 empty vector) double strand DNA; experiment: Gel shift assay of DNA supercoiling disturbance by cisplatin; assay type: biochemical; conditions: 37° C. for 60 minutes; for effect on disturbance of double strand DNA supercoiling by cisplatin (CDDP): preincubation of plasmid with Na2Sn, then 60 μM CDDP
Protocol: To quantify the degree of DNA intercalation by cisplatin (CDDP) that disturbs DNA supercoiling, 1 μg of plasmid (pcDNA3.1 empty vector, #V79020, Invitrogen) was mixed with a predetermined concentration of Na2Sn (n=an integer of 1 to 4), and preincubated in 10 mM phosphate-buffered saline (PBS, pH6.0) at room temperature for 5 minutes. Then, a CDDP solution was added to the solution to obtain a final concentration of 60 μM. Thereafter, the mixed solution was incubated at 37° C. for 60 minutes. After the incubation, the reaction products in the mixed solution were separated by electrophoresis using 1% agarose gel for determination of the DNA secondary structure.
It was previously shown that cisplatin can disturb DNA supercoiling by being intercalated between bases of double-stranded DNA structures and causing structural changes (Non-patent Document 4). In this study, the present inventors determined in vitro that cisplatin induced change in the bulk molecular volume of supercoiling DNA, and the bulk molecular volume was recovered by addition of polysulfide (FIG. 3).
This can be inferred because of the enhanced reducing power of the polysulfide with the increase in the number of sulfur atoms.

[2] = system: ovarian clear cell carcinoma (CCC); experiment: Effectiveness of the anticancer drug in ovarian clear cell carcinoma; assay type: in vivo
[3] = system: ovarian serous carcinoma (SC); experiment: Effectiveness of the anticancer drug in ovarian serous carcinoma; assay type: in vivo

Compound | effect on disturbance of double strand DNA supercoiling by cisplatin (CDDP) [1] | change in the bulk molecular volume of supercoiling double strand DNA ([1]; CDDP final concentration 60 μM, 1 μg plasmid, 1% agarose gel) | effectiveness as an anticancer drug [2] | effectiveness as an anticancer drug [3]
[Na+].[Na+].[S-][S-] [Na2S2] | attenuated | – | – | –
[Na+].[Na+].[S-]S[S-] [Na2S3] | attenuated | – | – | –
[Na+].[Na+].[S-2] [Na2S] | attenuated | – | – | –
[Na+].[Na+].[S-]SS[S-] [Na2S4] | attenuated | – | – | –
N.N.[Cl][Pt][Cl] [cisplatin] | – | increased the bulk molecular volume of double strand DNA | less effective | more effective
